From patent publication US11266145B2, “Compositions comprising protocatechuic acid and methods of use” (priority 2020, dated 2022)
“And” between values parts separate entries of the source, which are not always exact repeats. Equal values may be shown once.

Assays:
[1] = test system: 2019 Novel Coronavirus, Isolate USA-WA1/2020 (SARS-CoV-2); assay: TCID50 test of SARS-CoV-2 recovered from PCA-coated test substrates (plastic, cloth, mesh), titrated on Vero E6 cells; format: cell-based; settings: for log difference: versus virus control on substrate; for TCID50 Log10/mL: single replicates
Procedure: The Test Article (TA) used for this study was Protocatechuic Acid (PCA). The TA was received as an off-white powder. The PCA solution was prepared to be 30% PCA w/v in Ethanol. The PCA was prepared in 5 g increments to pre-warmed 50-60 mL ethanol until dissolved for a total of 30 g PCA in the solution. Additional ethanol was then added volumetrically to be equivalent to 100 mL.
The Test Substrates (TS) were a Plastic-type material sourced from a clear plastic laboratory bottle (Corning 431731 Octagonal bottle, 150 mL), cloth (the top layer of a N95 mask [3M 8210]), and a Sponsor-provided wire mesh to serve as a substrate for the TA. All test substrates were cut to approximately 1″×1″ in size. The test substrates were submerged into the PCA solution and dried horizontally to allow for even coating. After the substrate was thoroughly dried, the test substrate was re-submerged into the PCA solution for an additional coating.
The Test Virus used for this study was 2019 Novel Coronavirus, Isolate USA-WA1/2020 (SARS-CoV-2). The virus was stored at approximately […] prior to use. The multiplicity of infection (MOI) was 0.01 TCID50/cell.
The Cell Culture used for the TCID50 test was African Green Monkey Kidney Cells (Vero E6 cells) that were maintained in Dulbecco's […] with 10% fetal calf serum (DMEM-2). All growth media contained heat-inactivated fetal calf serum and antibiotics.
The test design is shown below in Table 1.
The Test Substrate was coated with PCA as described above. The test substrates was treated with PCA twice and allowed to fully dry overnight. In general, the time from the first coat to the next day's virus exposure was approximately 24 hours.
The treated Test Substrate plus TA was placed into a sterile 6 well cell culture plate and approximately 100 μL total of a ≤1×10^6 TCID50/mL SARS-CoV-2 virus was such that 50 μL of virus was layered on each sides of the treated test substrates. This was the procedure used for the initial Day 1 experiment.
For the confirmatory test, in an attempt to increase the recorded titer of the controls, the treated Test Substrate plus TA was placed into a sterile 6 well cell culture plate and the same amount of virus was layered onto both sides of the test substrate. However, an addition 50 μL of DMEM was added to each side to reduce the inactivation of the virus due to desiccation. Additionally, a glass coverslip was also added to help mitigate against evaporation.
After application of the virus, the virus was contact with the Test substrates for approximately 10 minutes (Groups 1, 2, and 3, Control groups 7, 8, and 9), 60 minutes (Groups 4, 5, and 6, Control Groups 10, 11, and 12). Each substrate per time per test article was performed in duplicate.
A cell culture-only control was included to indicate that cells without any TA or virus remain healthy throughout the assay. Virus-only controls without substrate was added for each timepoint to verify that the assay was performing as expected.
After the incubation time, the treated substrate was washed with 1 mL of cell culture media (DMEM-2) for approximately 5-10 minutes within the 6 well cell culture plate and the glass cover slip removed if necessary. This was the equivalent to a 10-fold dilution. The plate was gently stirred via an orbital shaker to enhance the recovery of the virus.
For the TCID50, the cell culture media (DMEM-2) used to wash the Test Substrate was serially diluted 10 fold and transferred into respective wells of a 96-well plate which contained a monolayer of African Green Monkey Kidney Cells (Vero E6 cells) for titration. The TCID50 assay was performed non-GLP according to IITRI Standard Operating Procedures for the assay. The TCID50 titers was calculated using the method of Reed-Meunch.

[2] = in vivo; cited from earlier work
SARS CoV-2 virus = assay: Second laboratory coupon test: virus dried on PCA-coated coupons (stainless steel, K95 mask, plastic), recovered and titrated on Vero E6 cells by CPE; format: cell-based; parameters: : unit not given here; settings: for Average Log10 TCID50 / Average TCID50: 3 replicates; for  / Log10 TCID50 / TCID50: single replicates; for TCID50: virus dried 45 minutes-1 h
Procedure: The second laboratory utilized test coupons made of solid stainless steel, plastic and K95 mask were coated in 30% w/v PCA in 70% ethanol. Each coupon was dipped in PCA, allowed to dry, dipped again and allowed to dry with the opposite side of the coupon facing up. Once dry, 200 ul virus was added to each coupon and allowed to dry (45 minutes-1 h drying time). Virus was recovered by adding 2 ml DMEM/F12 media and washing the coupon, without scraping so as not to dislodge PCA crystals. A yellow color change in the media was observed indicating acidification of the media upon addition to the PA-coated coupon. The recovered virus was added to empty 96 well plates and diluted 1:10 down the plate. This was then added to Vero E6 cells that had grown to ˜70% confluence. Cytotoxicity controls without virus and recovery controls without PCA were also done in the same manner. After addition to the cells, plates were read at day 4 for the presence of cytopathic effect (CPE) due to viral infection of cells. Note that cytotoxicity and CPE cannot be differentiated in this assay, thus any dead cells are marked as positive.
Cytotoxicity was seen up to 1:100 dilution for the K95, and 1:10 for the stainless steel and plastic coupons. […] The SS=stainless steel, K95=K95 mask and P=plastic. +PCA means coupons coated with PCA. No PCA (e.g. SS-1) indicates virus recovery controls with no PCA coating that had virus dried and recovered.

[3] = cited from earlier work
[4] = confirmatory run (Day 2), PCA on cloth, 10 min
[5] = confirmatory run (Day 2), PCA on cloth, 60 min
[6] = confirmatory run (Day 2), PCA on mesh, 10 min
[7] = confirmatory run (Day 2), PCA on mesh, 60 min
[8] = confirmatory run (Day 2), PCA on plastic, 10 min
[9] = confirmatory run (Day 2), PCA on plastic, 60 min
[10] = initial run (Day 1), PCA on cloth, 60 min incubation
[11] = initial run (Day 1), PCA on mesh, 60 min incubation
[12] = initial run (Day 1), PCA on plastic, 10 min incubation
[13] = initial run (Day 1), PCA on plastic, 60 min incubation
[14] = K95 mask coupon coated with PCA versus uncoated coupon
[15] = K95 mask coupon coated with PCA
[16] = plastic coupon coated with PCA versus uncoated coupon
[17] = stainless steel coupon coated with PCA versus uncoated coupon
[18] = stainless steel coupon coated with PCA

## O=C(O)c1ccc(O)c(O)c1 [PCA, Protocatechuic acid]
[1]; [4]
  Log average: 4.25 TCID50 Log10/mL
  log difference: −1.13 log
[1]; [5]
  Log average: 2.75 TCID50 Log10/mL
  log difference: −2.38 log
[1]; [6]
  Log average: 4.63 TCID50 Log10/mL
  log difference: −1.13 log
[1]; [7]
  Log average: 4.38 TCID50 Log10/mL
  log difference: −0.88 log
[1]; [8]
  Log average: 4.38 TCID50 Log10/mL
  log difference: −1.13 log
[1]; [9]
  Log average: 3.63 TCID50 Log10/mL
  log difference: −1.50 log
[1]; confirmatory run (Day 2, extra DMEM and coverslip), PCA on cloth, 10 min
  TCID50 Log10/mL: 4.25 TCID50 Log10/mL
[1]; confirmatory run (Day 2, extra DMEM and coverslip), PCA on cloth, 60 min
  TCID50 Log10/mL: 2.00 TCID50 Log10/mL and 3.50 TCID50 Log10/mL
[1]; confirmatory run (Day 2, extra DMEM and coverslip), PCA on mesh, 10 min
  TCID50 Log10/mL: 4.75 TCID50 Log10/mL and 4.50 TCID50 Log10/mL
[1]; confirmatory run (Day 2, extra DMEM and coverslip), PCA on mesh, 60 min
  TCID50 Log10/mL: 4.50 TCID50 Log10/mL and 4.25 TCID50 Log10/mL
[1]; confirmatory run (Day 2, extra DMEM and coverslip), PCA on plastic, 10 min
  TCID50 Log10/mL: 4.25 TCID50 Log10/mL and 4.50 TCID50 Log10/mL
[1]; confirmatory run (Day 2, extra DMEM and coverslip), PCA on plastic, 60 min
  TCID50 Log10/mL: 3.50 TCID50 Log10/mL and 3.75 TCID50 Log10/mL
[1]; in 10 minutes, virus droplet on PCA coating, aqueous environment
  virucidal effect on the SARS CoV2 virus: virucidal effect
[1]; initial run (Day 1), PCA on cloth (N95 top layer), 10 min incubation
  TCID50 Log10/mL: 2.75 TCID50 Log10/mL
[1]; initial run (Day 1), PCA on cloth, 10 min
  log difference: −1.25 log
[1]; initial run (Day 1), PCA on cloth, 10 min incubation
  Log average: 2.75 TCID50 Log10/mL
[1]; initial run (Day 1), PCA on cloth, 60 min
  log difference: −1.00 log
[1]; [10]
  Log average: 2.75 TCID50 Log10/mL
  TCID50 Log10/mL: 2.50 TCID50 Log10/mL and 3.00 TCID50 Log10/mL
[1]; initial run (Day 1), PCA on mesh, 10 min
  log difference: −0.25 log
[1]; initial run (Day 1), PCA on mesh, 10 min incubation
  Log average: 3.38 TCID50 Log10/mL
[1]; initial run (Day 1), PCA on mesh, 60 min
  log difference: −2.00 log
[1]; [11]
  Log average: 1.50 TCID50 Log10/mL
  TCID50 Log10/mL: 1.00 TCID50 Log10/mL and 2.00 TCID50 Log10/mL
[1]; initial run (Day 1), PCA on plastic, 10 min
  log difference: −0.63 log
[1]; [12]
  Log average: 3.75 TCID50 Log10/mL
  TCID50 Log10/mL: 3.75 TCID50 Log10/mL
[1]; initial run (Day 1), PCA on plastic, 60 min
  log difference: −1.13 log
[1]; [13]
  Log average: 2.88 TCID50 Log10/mL
  TCID50 Log10/mL: 3.25 TCID50 Log10/mL and 2.50 TCID50 Log10/mL
[1]; initial run (Day 1), PCA on wire mesh, 10 min incubation
  TCID50 Log10/mL: 3.50 TCID50 Log10/mL and 3.25 TCID50 Log10/mL
[2]
  LD50: 800 mg/kg
SARS CoV-2 virus; [14]
  Log Reduction to Virus Controls: 2.45
  Percent Log Reduction: 99.65%
SARS CoV-2 virus; [15]
  Average Log10 TCID50: 2.10
  Average TCID50: 182.4589
  : 0.03162 and 0.05012 and 0.3162
  Log10 TCID50: 2.50 and 2.30 and 1.50
  TCID50: 316.2278 and 199.5262 and 31.62
SARS CoV-2 virus; [16]
  Log Reduction to Virus Controls: 3.94
  Percent Log Reduction: 99.99%
SARS CoV-2 virus; plastic coupon coated with PCA
  Average Log10 TCID50: 1.91
  Average TCID50: 88
  : 0.1995 and 0.07943 and 0.1136
  Log10 TCID50: 1.70 and 2.10 and 1.94
  TCID50: 50.12 and 125.8925 and 87.99
SARS CoV-2 virus; [17]
  Log Reduction to Virus Controls: 2.93
  Percent Log Reduction: 99.88%
SARS CoV-2 virus; [18]
  Average Log10 TCID50: 2.37
  Average TCID50: 298.9493
  : 0.01995 and 0.1259 and 0.03162
  Log10 TCID50: 2.70 and 1.90 and 2.50
  TCID50: 501.1872 and 79.43 and 316.2278
[3]
  solubility in water: approximately 10 mg/ml
